Measured values reported in patent US6670383B2, “Pyranocoumarin compounds as a novel pharmacophore with anti-TB activity” (priority 2001, dated 2003).
In brackets after ≈: the same amount, converted by molar mass. Where a name gives a salt, the structure may show the parent alone. Read-outs that look alike come from different tables or passages of the source.

Tests used:
Assay type in all cases: cell-based
[1] = system: H37Rv strain of M. tuberculosis; test: BACTEC 460 radiometric system in BACTEC 12B medium: inhibition and MIC; conditions: for MIC: lowest concentration inhibiting 99% of the inoculum
[2] = system: M. tuberculosis H37Ra; test: colorimetric microdilution broth assay with alamar Blue, initial screen at four log10 dilutions; conditions: initial screening at 0.128, 1.28, 12.8 and 128 μg/mL
Experimental: The compounds synthesized above were evaluated for activity against M. tuberculosis H37Ra using a colorimetric microdilution broth assay that incorporated the REDOX indicator alamar Blue, which indicates the growth and viability by the metabolic reduction of the dye from blue to red^18.
In an initial screen, the compounds were assayed in duplicate at four log10 dilutions, with the highest concentration being 128 μg/mL (therefore, tested concentrations were 0.128, 1.28, 12.8, and 128 μg/mL). Each solubilized test compound was diluted in broth medium (Middlebrook 7H9+ADC enrichment+0.2% glycerol) at twice the desired concentration and 0.05 mL of each dilution then added to appropriate wells in duplicate in a 96 well (U-shaped) microtiter plates. A plate format was designed for up to seven (7) compounds per plate. Each plate also included uninoculated drug controls, viability controls, uninoculated medium controls, and positive drug controls. The inoculum for each well consisted of 0.05 mL of culture, standardized as described above to provide an inoculum in each microtiter well of approximately 10^5 CFU/mL. The plates were covered with a lid, placed in polyethylene bags and incubated for at 37° C. for 6 days. At that time, alamar Blue, diluted in Tween 80, was added to each well followed by further incubation for about 20 hours. The plates were read in an optical microplate reader programmed to subtract absorbance at 600 nm from absorbance at 570 nm. This effectively blanked out turbidity and absorbance due to oxidized dye. The amount of dye reduced, resulting in a change from blue to red, is indicative of drug yielding a differential absorption of zero or less.

[3] = system: M. tuberculosis H37Ra; test: MIC and MBC determination using 2-fold dilutions; conditions: for MIC / MBC: Mycobacterium tuberculosis
[4] = Mycobacterium tuberculosis, H37RA, read-out: MIC
[5] = Mycobacterium tuberculosis, H37RA
[6] = 2-fold dilutions, lowest concentration that completely inhibits growth, H37Ra, read-out: MIC
[7] = minimum bactericidal concentration, H37Ra, read-out: MBC

In the case of “7,8-Dihydrosoulattrolide [7,8-Dihydrosoulattrolide (5)]”, the “% Inhibition” value ([1]; 12.5 μg/mL) was 99% and the MIC [1] was 6.25 µg/mL.
CCCc1cc(=O)oc2c3c(c4c(c12)OC(C)(C)C=C4)O[C@H](C)[C@@H](C)C3=O (racemic) [(±)-6] was tested, and the “% Inhibition” value ([1]; 12.5 μg/mL) was 59% and the MIC [1] was greater than 12.5 µg/mL.
CCCc1cc(=O)oc2c3c(c4c(c12)OC(C)(C)CC4)OC(C)C(C)C3=O (racemic) [(±)-7,8-Dihydro-12-Oxocalanolide A (7), (±)-7,8-Dihydro-12-Oxocalanolide A] was tested, and the “% Inhibition” value ([1]; 12.5 μg/mL) was 43% and the MIC [1] was greater than 12.5 µg/mL.
With CCCc1cc(=O)oc2c(C(=O)CC)c(OCCN3CCOCC3)c3c(c12)OC(C)(C)CC3 [2,2-Dimethyl-5-(2-morpholin-4-yl-ethoxy)-6-propionyl-10-propyl-3,4-dihydro-2H-pyrano[2,3-f]-chromen-8-one] the MIC [2, 4] was greater than 128 µg/mL.
For CCCc1cc(=O)oc2c3c(c4c(c12)OC(C)(C)C=C4)O[C@H](C)[C@@H](C)C3=O [(+)-12-Oxocalanolide A (6), (+)-12-Oxocalanolide A], the “% Inhibition” value ([1]; 12.5 μg/mL) was 78% and the MIC [1] was greater than 12.5 µg/mL.
For CCCc1cc(=O)oc2c3c(c4c(c12)OC(C)(C)C=C4)O[C@H](C)[C@H](C)C3=O [(+)-Calanolide D (8), (+)-Calanolide D], the “% Inhibition” value ([1]; 12.5 μg/mL) was 57% and the MIC [1] was greater than 12.5 µg/mL.
In the case of CCCc1cc(=O)oc2c3c(c4c(c12)OC(C)(C)C=C4)O[C@@H](C)[C@H](C)[C@@H]3O [(−)-Calanolide B (3), (−)-Calanolide B], the “% Inhibition” value ([1]; 12.5 μg/mL) was 99% and the MIC [1] was 6.25 µg/mL (≈ 16.9 µM).
CCCc1cc(=O)oc2c(C(O)CC)c(O)c3c(c12)OC(C)(C)C=C3 (stereo not drawn) [Compound 11a, 5-Hydroxy-6-(1-hydroxypropyl)-2,2-dimethyl-10-propyl-2H-pyrano[2,3-f]chromen-8-one] showed an MIC [2, 4] of 12.8 to 128 µg/mL (≈ 37.2 to 372 µM).
Molecule CCCc1cc(=O)oc2c(C(O)CC)c(OC)c3c(c12)OC(C)(C)C=C3 (stereo not drawn) [Compound 11b, 6-(1-Hydroxypropyl)-5-methoxy-2,2-dimethyl-10-propyl-2H-pyrano[2,3-f]chromen-8-one] has an MIC [2, 5] of 12.8 to 128 µg/mL (≈ 35.7 to 357 µM).
Work on CCCc1cc(=O)oc2c(C(O)CC)c(OCCO)c3c(c12)OC(C)(C)C=C3 (stereo not drawn) [Compound 11e, 5-(2-Hydroxyethoxy)-6-(1-hydroxypropyl)-2,2-dimethyl-10-propyl-2H-pyrano[2,3-f]chromen-8-one] yielded an MIC [2, 4] of 12.8 to 128 µg/mL (≈ 33 to 330 µM).
With CCCc1cc(=O)oc2c(C(O)CC)c(O)c3c(c12)OC(C)(C)CC3 (stereo not drawn) [Compound 12a, 5-Hydroxy-6-(1-hydroxypropyl)-2,2-dimethyl-10-propyl-3,4-dihydro-2H-pyrano[2,3-f]chromen-8-one] the MIC [2, 4] was 12.8 to 128 µg/mL (≈ 36.9 to 369 µM).
For CCCc1cc(=O)oc2c(C(O)CC)c(OC)c3c(c12)OC(C)(C)CC3 (stereo not drawn) [Compound 12b, 6-(1-Hydroxypropyl)-5-methoxy-2,2-dimethyl-10-propyl-3,4-dihydro-2H-pyrano[2,3-f]chromen-8-one], the MIC [2, 5] was 12.8 to 128 µg/mL (≈ 35.5 to 355 µM).
With CCCc1cc(=O)oc2c(C(O)CC)c(OCCO)c3c(c12)OC(C)(C)CC3 (stereo not drawn) [Compound 12e, 5-(2-Hydroxyethoxy)-6-(1-hydroxypropyl)-2,2-dimethyl-10-propyl-3,4-dihydro-2H-pyrano[2,3-f]chromen-8-one] the MIC [2, 4] was 12.8 to 128 µg/mL (≈ 32.8 to 328 µM).
C=CCOc1cc(OCC=C)c2c(CCC)cc(=O)oc2c1C(O)CC (stereo not drawn) [Compound 21d, 5,7-Bis-allyloxy-8-(1-hydroxy-propyl)-4-propyl-chromen-2-one] was tested, and the MIC [3, 6] was 16 µg/mL (≈ 44.6 µM), the MBC [3, 7] was greater than 64 µg/mL and the MIC [2, 4] was 1.28 to 12.8 µg/mL (≈ 3.57 to 35.7 µM).
For CCCc1cc(=O)oc2c3c(c4c(c12)OC(C)(C)C=C4)O[C@H](C)[C@@H](C)C3N (stereo partly drawn) [Compound 22], the “effect on M. tuberculosis” value [3] was “bactericidal”, the MIC [3, 6] was 16 µg/mL (≈ 43.3 µM) and the MBC [3, 7] was 32 µg/mL (≈ 86.6 µM). It also gave an MIC [2, 4] of 1.28 to 12.8 µg/mL (≈ 3.46 to 34.6 µM).
CCCc1cc(=O)oc2c(C(N)CC)c(OC(C)C)cc(OC(C)C)c12 (stereo not drawn) [Compound 26c, 8-(1-Aminopropyl)-5,7-diisopropoxy-4-propyl-chromen-2-one, hydrochloride] was tested, and the “effect on M. tuberculosis” value [3] was “bactericidal”, the MIC [3, 6] was 16 µg/mL and the MBC [3, 7] was 64 µg/mL. For the same molecule, the MIC [2, 4] was 1.28 to 12.8 µg/mL.
CCCc1cc(=O)oc2c(C(=O)CC)c(O)c3c(c12)OC(C)(C)C=C3 [Compound 30, 5-hydroxy-2,2-dimethyl-6-propionyl-10-propyl-2H-pyrano[2,3-f]chromen-8-one] showed an MIC [2, 4] greater than 128 µg/mL.
CCCc1cc(=O)oc2c(C(=O)CC)c(OC)c3c(c12)OC(C)(C)C=C3 [Compound 31b, 5-Methoxy-2,2-dimethyl-6-propionyl-10-propyl-2H-pyrano[2,3-f]chromen-8-one] was tested, and the MIC [2, 4] was 12.8 to 128 µg/mL (≈ 35.9 to 359 µM).
For CCCc1cc(=O)oc2c(C(=O)CC)c(OCCO)c3c(c12)OC(C)(C)C=C3 [Compound 31e, 5-(2-Hydroxy-ethoxy)-2,2-dimethyl-6-propionyl-10-propyl-2H-pyrano[2,3-f]chromen-8-one], the MIC [2, 4] was 12.8 to 128 µg/mL (≈ 33.1 to 331 µM).
CCCc1cc(=O)oc2c(C(=O)CC)c(OC)cc(OC)c12 [Compound 43b, 5,7-Dimethoxy-8-propionyl-4-propyl-chromen-2-one] was tested, and the MIC [2, 4] was greater than 128 µg/mL.
For CCCc1cc(=O)oc2c(C(=O)CC)c(O)c3c(c12)OC(C)(C)CC3 [Compound 44a, 5-Hydroxy-2,2-dimethyl-6-propionyl-10-propyl-3,4-dihydro-2H-pyrano[2,3-f]chromen-8-one], the MIC [2, 4] was greater than 128 µg/mL.
Work on CCCc1cc(=O)oc2c(C(=O)CC)c(OCCO)c3c(c12)OC(C)(C)CC3 [Compound 44e, 5-(2-Hydroxyethoxy)-2,2-dimethyl-6-propionyl-10-propyl-3,4-dihydro-2H-pyrano[2,3-f]chromen-8-one] yielded an MIC [2, 4] of 12.8 to 128 µg/mL (≈ 33 to 330 µM).
CCCc1cc(=O)oc2c(C(=O)CC)c(OC(C)C)c3c(c12)OC(C)(C)CC3 [Compound 44h, 5-Isopropoxy-2,2-dimethyl-6-propionyl-10-propyl-3,4-dihydro-2H-pyrano[2,3-f]chromen-8-one] was tested, and the MIC [2, 4] was greater than 128 µg/mL.
Work on CCCc1cc(=O)oc2c(C(=O)CC)c(CC(=O)OCC)c3c(c12)OC(C)(C)CC3 [Compound 44i, 5-Ethoxycarbonylmethyl-2,2-dimethyl-6-propionyl-10-propyl-3,4-dihydro-2H,8H-pyrano[2,3-f]chromen-8-one] yielded an MIC [2, 5] greater than 128 µg/mL.
CCCc1cc(=O)oc2c(C(=O)CC)c(OCCO)c3c(c12)OC(C)(C)CC3 [Compound 44k] was tested, and the MIC [2] was greater than 128 µg/mL.
Molecule CCCc1cc(=O)oc2c(C(N)CC)c(O)c3c(c12)OC(C)(C)C=C3 (stereo not drawn) [Compound 45a, 6-(1-Aminopropyl)-5-hydroxy-2,2-dimethyl-10-propyl-2H-pyrano[2,3-f]chromen-8-one] has an MIC [2, 4] of 12.8 to 128 µg/mL (≈ 37.3 to 373 µM).
Work on CCCc1cc(=O)oc2c(C(CC)NCC)c(OC)c3c(c12)OC(C)(C)C=C3.Cl (stereo not drawn) [Compound 45g, 6-(1-Ethylaminopropyl)-5-methoxy-2,2-dimethyl-10-propyl-2H-pyrano[2,3-f]chromen-8-one, hydrochloride] yielded an MIC [2, 4] of 12.8 to 128 µg/mL.
For CCCc1cc(=O)oc2c(C(=O)CC)c3c(c(O)c12)C=CC(C)(C)O3 [Compound 47], the MIC [2, 4] was 12.8 to 128 µg/mL (≈ 37.4 to 374 µM).
CCCc1cc(=O)oc2c(C(=O)CC)c3c(c(OCC)c12)C=CC(C)(C)O3 [Compound 48] showed an MIC [2, 4] of 12.8 to 128 µg/mL (≈ 34.6 to 346 µM).
In the case of C#CCOc1cc2c(c3oc(=O)cc(CCC)c13)C(O)C(C)C(C)O2 (stereo not drawn) [Compound trans-17d, 5-(Prop-2-ynyloxy)-10-hydroxy-8,9-dimethyl-4-propyl-9,10-dihydro-8H-pyrano[2,3-f]chromen-2-one], the MIC [2] was greater than 128 µg/mL.
C[C@H]1[C@H](C)Oc2c3c(c4c(-c5ccccc5)cc(=O)oc4c2[C@H]1O)OC(C)(C)C=C3 [Soulattrolide (4), Soulattrolide] was tested, and the inhibition at 12.5 µg/mL ([1]; Mycobacterium tuberculosis, 12.5 μg/mL) was 99% and the MIC ([1]; Mycobacterium tuberculosis, read-out: MIC) was 3.13 µg/mL (≈ 7.74 µM).
Work on CCCc1cc(=O)oc2c3c(cc(OC)c12)OC(C)C(C)C3O (stereo not drawn) [cis-17b, 5-Methoxy-10-hydroxy-8,9-dimethyl-4-propyl-9,10-dihydro-8H-pyrano[2,3-f]chromen-2-one] yielded an MIC [2] greater than 128 µg/mL.
In the case of C=CCOc1cc2c(c3oc(=O)cc(CCC)c13)C(O)C(C)C(C)O2 (stereo not drawn) [cis-17c, 5-(Allyloxy)-10-hydroxy-8,9-dimethyl-4-propyl-9,10-dihydro-8H-pyrano[2,3-f]chromen-2-one], the “effect on M. tuberculosis” value [3] was “bactericidal”, the MBC ([3]; H37RA) was 64 µg/mL (≈ 186 µM) and the MIC ([3]; H37RA) was 16 µg/mL (≈ 46.5 µM).
Molecule C=CC(C)Oc1cc2c(c3oc(=O)cc(CCC)c13)C(O)C(C)C(C)O2 (stereo not drawn) [cis-17f, 5-(1-Methylallyloxy)-10-hydroxy-8,9-dimethyl-4-propyl-9,10-dihydro-8H-pyrano[2,3-f]chromen-2-one] has an MIC [3, 6] of 16 µg/mL (≈ 44.6 µM) and an MBC [3, 7] greater than 64 µg/mL.
Work on C=CCOc1cc2c(c3oc(=O)cc(CCC)c13)C(O)C(C)C(C)O2 (stereo not drawn) [trans-17c, 5-(Allyloxy)-10-hydroxy-8,9-dimethyl-4-propyl-9,10-dihydro-8H-pyrano[2,3-f]chromen-2-one] yielded an MIC [2] greater than 128 µg/mL.
Work on C=C(C)COc1cc2c(c3oc(=O)cc(CCC)c13)C(O)C(C)C(C)O2 (stereo not drawn) [trans-17g, 5-(2-Methylallyloxy)-10-hydroxy-8,9-dimethyl-4-propyl-9,10-dihydro-8H-pyrano[2,3-f]chromen-2-one] yielded an MIC [2] greater than 128 µg/mL.
